Results on five compounds are retold here after patent US20240252488A1 (KOREA RESEARCH INSTITUTE OF CHEMICAL TECHNOLOGY, priority 2020, published 2024).

Experiment [1] relates to FADD−/− Jurkat cells. Description: Necroptosis inhibition assay, TNF-α-induced necroptosis (CellTiter-Glo 2.0). Format: cell-based, human. The note with it: TNF-α 15 ng/mL; for Necroptosis inhibition assay (Rescue %) 1 μM: compound 1 μM; for Necroptosis inhibition assay (Rescue %) 10 μM: compound 10 μM. A digest of the protocol: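 Cmpd 0.1/1/10 μM final, 30 min RT preincubation; TNF-α 15 ng/mL final; 20–24 h, 37° C, 5% CO2. Readout: ATP luminescence (reagent 1:3 in PBS), 0.5 s/well. Cytotoxicity and % necroptosis inhibition calculated from signal.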

The target in experiment [2] is T1, MLKL (Homo sapiens, UniProt Q8NB16).
T1 sequence (Q8NB16 1-471): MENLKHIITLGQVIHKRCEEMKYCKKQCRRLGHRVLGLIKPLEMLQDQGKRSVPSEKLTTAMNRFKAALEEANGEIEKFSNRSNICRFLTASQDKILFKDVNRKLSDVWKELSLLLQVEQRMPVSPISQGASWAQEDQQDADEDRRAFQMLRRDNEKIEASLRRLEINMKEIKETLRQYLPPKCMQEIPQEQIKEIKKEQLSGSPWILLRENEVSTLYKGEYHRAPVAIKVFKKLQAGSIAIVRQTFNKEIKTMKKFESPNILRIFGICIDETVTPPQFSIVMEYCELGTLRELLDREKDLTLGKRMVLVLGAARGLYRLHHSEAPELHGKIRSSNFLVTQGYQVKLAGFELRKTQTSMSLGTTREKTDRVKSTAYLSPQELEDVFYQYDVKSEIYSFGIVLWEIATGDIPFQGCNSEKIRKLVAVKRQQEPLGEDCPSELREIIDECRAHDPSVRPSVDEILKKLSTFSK
The experiment can be described thus: MLKL degradation assay in HepG2 cell line (western blot). Format: cell-based. Further details: endogenous in cells; host or cells: HepG2 or HaCaT. The settings on record: cell line not given; for Degradation assay (Degradation %) 1 μM: compound 1 μM; for Degradation assay (Degradation %) 10 μM: compound 10 μM. A digest of the protocol:
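HepG2, cpd final 1 or 10 μM, 20-24 h, 37 °C/5% CO2; RIPA lysis, BCA-normalized, 10-15 μg/lane SDS-PAGE, western blot, ECL read-out.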

The target of experiment [3] is T1, MLKL. Description: Measurement of binding affinity with MLKL receptor (competitive binding assay, Kd). Further details: made in house; host or cells: HEK 293 cell line (T7 phage in E. coli BL21-derived host is also described). A digest of the protocol: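 MLKL was produced in HEK 293 cells and tagged with DNA for detection. Liganded beads were blocked with excess biotin and washed to cut non-specific binding, then compounds (111× DMSO stocks, 0.9% DMSO in assay) competed for binding. Eluate kinase was measured by qPCR for Kd.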

As to `Nc1ncc(-c2cnn(C3CCN(CC4CCN(CC5CCN(C(=O)c6cccc(C(=O)NC7CCC(=O)NC7=O)c6)CC5)CC4)CC3)c2)nc1C(=O)O[C@@H](C(=O)Nc1ccc(F)cc1)c1ccccc1` (stereo partly drawn) [TDH-546, (R)-2-((4-fluorophenyl)amino)-2-oxo-1-phenylethyl 3-amino-6-(1-(1-((1-((1-(3-((2,6-dioxopiperidin-3-yl)carbamoyl)benzoyl)piperidin-4-yl)methyl)piperidin-4-yl)methyl)piperidin-4-yl)-1H-pyrazol-4-yl)pyrazine-2-carboxylate], in experiment [1] (FADD−/− Jurkat cells), the “Necroptosis inhibition assay (Rescue %) 1 μM” value came to 31.08% and the “Necroptosis inhibition assay (Rescue %) 10 μM” value is recorded as 28.77%. In addition, in experiment [2], the “Degradation assay (Degradation %) 1 μM” value is recorded as 70.89% and the “Degradation assay (Degradation %) 10 μM” value was determined as 81.41%. In addition, the Kd in experiment [3] was 0.4 nM.

Take `Cc1cccc(NC(=O)[C@H](OC(=O)c2nc(-c3cnn(C4CCN(CCCN5CCN(C(=O)COc6ccc7c(c6)C(=O)N(C6CCC(=O)NC6=O)C7=O)CC5)CC4)c3)cnc2N)c2ccccc2)c1` (stereo partly drawn) [TDH-487, (R)-2-oxo-1-phenyl-2-(m-tolylamino)ethyl 3-amino-6-(1-(1-(3-(4-(2-((2-(2,6-dioxopiperidin-3-yl)-1,3-dioxoisoindolin-5-yl)oxy)acetyl)piperazin-1-yl)propyl)piperidin-4-yl)-1H-pyrazol-4-yl)pyrazine-2-carboxylate]: in experiment [1] (FADD−/− Jurkat cells), the “Necroptosis inhibition assay (Rescue %) 1 μM” value is listed as 59.49% and the “Necroptosis inhibition assay (Rescue %) 10 μM” value worked out at 58.14%. In experiment [2], the “Degradation assay (Degradation %) 1 μM” value is reported as 77.25% and the “Degradation assay (Degradation %) 10 μM” value is on record as 89.93%. The compound further returned a Kd in experiment [3] of 4.3 nM.

As for `Nc1ncc(-c2cnn(C3CCN(CC4CCN(CC(=O)NC5CCN(c6cccc7c6C(=O)N(C6CCC(=O)NC6=O)C7=O)CC5)CC4)CC3)c2)nc1C(=O)OC(C(=O)Nc1ccc(F)cc1)c1ccccc1` (stereo not shown) [TDH-236, 2-((4-fluorophenyl)amino)-2-oxo-1-phenylethyl 3-amino-6-(1-(1-((1-(2-((1-(2-(2,6-dioxopiperidin-3-yl)-1,3-dioxoisoindolin-4-yl)piperidin-4-yl)amino)-2-oxoethyl)piperidin-4-yl)methyl)piperidin-4-yl)-1H-pyrazol-4-yl)pyrazine-2-carboxylate], in experiment [1], the “Necroptosis inhibition assay (Rescue %) 1 μM” value was 42.35% and the “Necroptosis inhibition assay (Rescue %) 10 μM” value came to 46.48%. In addition, in experiment [2], the “Degradation assay (Degradation %) 1 μM” value turned out to be 32.16% and the “Degradation assay (Degradation %) 10 μM” value was determined as 27.8%. In experiment [3], this compound had an equilibrium dissociation constant (Kd) of 4.9 nM.

As for `Nc1ncc(-c2cnn(C3CCN(CCOCCOCCOCCNC(=O)COc4cccc5c4C(=O)N(C4CCC(=O)NC4=O)C5=O)CC3)c2)nc1C(=O)O[C@@H](C(=O)Nc1ccc(F)cc1)c1ccccc1` (stereo partly drawn) [TDH-155, (R)-2-((4-fluorophenyl)amino)-2-oxo-1-phenylethyl 3-amino-6-(1-(1-(1-((2-(2,6-dioxopiperidin-3-yl)-1,3-dioxoisoindolin-4-yl)oxy)-2-oxo-6,9,12-trioxa-3-azatetradecan-14-yl)piperidin-4-yl)-1H-pyrazol-4-yl)pyrazine-2-carboxylate], in experiment [1], the “Necroptosis inhibition assay (Rescue %) 1 μM” value was determined as 31.1% and the “Necroptosis inhibition assay (Rescue %) 10 μM” value worked out at 64.6%. Further, in experiment [2], the “Degradation assay (Degradation %) 1 μM” value was found to be 31.35% and the “Degradation assay (Degradation %) 10 μM” value is recorded as 63.85%. In experiment [3], this compound showed a dissociation constant Kd of 9.5 nM.

In the case of `Nc1ncc(-c2cnn(C3CCN(CCCCCCNC(=O)C4CN(c5cccc6c5C(=O)N(C5CCC(=O)NC5=O)C6=O)C4)CC3)c2)nc1C(=O)O[C@@H](C(=O)Nc1ccc(F)cc1)c1ccccc1` (stereo partly drawn) [TDH-113, (R)-2-((4-fluorophenyl)amino)-2-oxo-1-phenylethyl 3-amino-6-(1-(1-(6-(1-(2-(2,6-dioxopiperidin-3-yl)-1,3-dioxoisoindolin-4-yl)azetidine-3-carboxamido)hexyl)piperidin-4-yl)-1H-pyrazol-4-yl)pyrazine-2-carboxylate], in experiment [1], the “Necroptosis inhibition assay (Rescue %) 1 μM” value is reported as 24.96% and the “Necroptosis inhibition assay (Rescue %) 10 μM” value is listed as 5.16%. In experiment [2], the “Degradation assay (Degradation %) 1 μM” value is listed as 24.54% and the “Degradation assay (Degradation %) 10 μM” value was 19.24%. In experiment [3], this compound came in with a Kd of 2.3 nM.
